From ChEMBL document CHEMBL3098115, “Drug discovery considerations in the development of covalent inhibitors” (2014)

Assays:
Type in all cases: functional
[1] = test system: Mus musculus; test: Ex vivo inhibition of EST31 in C57BL/6 mouse liver at 1 mg/kg, ip after 1 hr relative to vehicle-treated control; conditions: C57BL/6, Liver, route intraperitoneal
[2] = test system: Mus musculus; test: Ex vivo inhibition of EST31 in C57BL/6 mouse kidney at 1 mg/kg, ip after 1 hr relative to vehicle-treated control; conditions: C57BL/6, Kidney, route intraperitoneal
[3] = test system: Mus musculus; test: Ex vivo inhibition of CE6 in C57BL/6 mouse liver at 1 mg/kg, ip after 1 hr relative to vehicle-treated control; conditions: C57BL/6, Liver, route intraperitoneal
[4] = test system: Mus musculus; test: Ex vivo inhibition of CE6 in C57BL/6 mouse kidney at 1 mg/kg, ip after 1 hr relative to vehicle-treated control; conditions: C57BL/6, Kidney, route intraperitoneal

Measured: inhibition in vivo at 1 mg/kg

C#CCCCCCCCCCNC(=O)Oc1cccc(-c2cccc(C(N)=O)c2)c1
< 20%: all assays above
